Measurements taken from patent US10576062B2, “Carbamoyloxymethyl triazole cyclohexyl acids as LPA antagonists” (Bristol-Myers Squibb Company, priority 2016, dated 2020).

Target: T1, human LPA1 (Homo sapiens, UniProt Q92633)
T1 construct: expressed in transfected cells; host or cells: Chinese hamster ovary (CHO) cells
Assay: LPA1 functional antagonist assay (LPA-induced calcium flux)
Format: cell-based
Settings: CHO cells overexpressing human LPA1; inhibition of calcium flux induced by 10 nM LPA; read-out: hLPA1 IC50
In short: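 CHO cells overexpressing human LPA1, loaded with calcium dye 30 min at 37° C, were preincubated 20 min at room temperature with compound (0.08 nM–5 μM, 0.5% DMSO) in HBSS/20 mM HEPES/0.1% fatty acid-free BSA.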

T1 sequence (Q92633 whole entry): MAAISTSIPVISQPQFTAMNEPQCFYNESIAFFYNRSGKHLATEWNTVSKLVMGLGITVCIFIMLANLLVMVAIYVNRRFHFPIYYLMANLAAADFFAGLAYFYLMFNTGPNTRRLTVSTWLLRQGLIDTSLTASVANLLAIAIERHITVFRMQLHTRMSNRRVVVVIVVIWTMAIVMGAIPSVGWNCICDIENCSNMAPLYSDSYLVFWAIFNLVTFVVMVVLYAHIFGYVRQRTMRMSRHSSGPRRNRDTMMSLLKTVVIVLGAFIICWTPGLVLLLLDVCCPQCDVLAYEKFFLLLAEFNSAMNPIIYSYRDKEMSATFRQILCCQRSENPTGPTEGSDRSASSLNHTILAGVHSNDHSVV

IC50	SMILES
21 nM	CCCCN(C)C(=O)OCc1c(-c2cnc(O[C@H]3CCC[C@H](C(=O)O)C3)c(C)n2)nnn1C [Example 219, (1S,3S)-3-((5-(5-(((butyl(methyl)carbamoyl)oxy)methyl)-1-methyl-1H-1,2,3-triazol-4-yl)-3-methylpyrazin-2-yl)oxy)cyclohexane-1-carboxylic acid]
19 nM	CN(C(=O)OCc1c(-c2ccc(O[C@H]3CCC[C@H](C(=O)O)C3)cn2)nnn1C)C1CCCC1 [Example 2, (1S,3S)-3-((6-(5-(((cyclopentyl(methyl)carbamoyl)oxy)methyl)-1-methyl-1H-1,2,3-triazol-4-yl)pyridin-3-yl)oxy)cyclohexane-1-carboxylic Acid]
46 nM	Cc1nc(-c2nnn(C)c2COC(=O)N(C)C[C@H]2C[C@@H]2C)cnc1O[C@H]1CCC[C@H](C(=O)O)C1 [Example 236, (1S,3S)-3-((3-methyl-5-(1-methyl-5-(((methyl(((1S,2S)-2-methylcyclopropyl)methyl)carbamoyl)oxy)methyl)-1H-1,2,3-triazol-4-yl)pyrazin-2-yl)oxy)cyclohexane-1-carboxylic acid]
191 nM	Cc1nc(-c2nnn(C)c2COC(=O)N(C)CC(C)(C)F)cnc1O[C@H]1CCC[C@H](C(=O)O)C1 [Example 232, (1S,3S)-3-((5-(5-((((2-fluoro-2-methylpropyl)(methyl)carbamoyl)oxy)methyl)-1-methyl-1H-1,2,3-triazol-4-yl)-3-methylpyrazin-2-yl)oxy)cyclohexane-1-carboxylic acid]
133 nM	CCCC1(N(C)C(=O)OCc2c(-c3ccc(O[C@H]4CCC[C@H](C(=O)O)C4)c(CC)n3)nnn2C)CC1 [Example 207, (1S,3S)-3-((2-ethyl-6-(1-methyl-5-(((methyl(1-propylcyclopropyl)carbamoyl)oxy)methyl)-1H-1,2,3-triazol-4-yl)pyridin-3-yl)oxy)cyclohexane-1-carboxylic acid]
1010 nM	COCc1nc(-c2nnn(C)c2COC(=O)N(C)CC2CC2)ccc1O[C@H]1CCC[C@H](C(=O)O)C1 [Example 285, (1S,3S)-3-((6-(5-((((cyclopropylmethyl)(methyl)carbamoyl)oxy)methyl)-1-methyl-1H-1,2,3-triazol-4-yl)-2-(methoxymethyl)pyridin-3-yl)oxy)cyclohexane-1-carboxylic acid]
26 nM	CCc1nc(-c2nnn(C)c2COC(=O)N(C)CCC(C)C)ccc1O[C@H]1CCC[C@H](C(=O)O)C1 [Example 208, (1S,3S)-3-((2-ethyl-6-(5-(((isopentyl(methyl)carbamoyl)oxy)methyl)-1-methyl-1H-1,2,3-triazol-4-yl)pyridin-3-yl)oxy)cyclohexane-1-carboxylic acid]
27 nM	C[C@@H]1C[C@H]1CN(C)C(=O)OCc1c(-c2ccc(O[C@H]3CCC[C@H](C(=O)O)C3)cn2)nnn1C [Example 251, (1S,3S)-3-((6-(1-methyl-5-(((methyl(((1R,2R)-2-methylcyclopropyl)methyl)carbamoyl)oxy)methyl)-1H-1,2,3-triazol-4-yl)pyridin-3-yl)oxy)cyclohexane-1-carboxylic acid]
76 nM	Cc1nc(-c2nnn(C)c2COC(=O)N(C)C2CCC2)cnc1O[C@H]1CCC[C@H](C(=O)O)C1 [Example 229, (1S,3S)-3-((5-(5-(((cyclobutyl(methyl)carbamoyl)oxy)methyl)-1-methyl-1H-1,2,3-triazol-4-yl)-3-methylpyrazin-2-yl)oxy)cyclohexane-1-carboxylic acid]
7 nM	CN(CC1CC1)C(=O)OCc1c(-c2ccc(O[C@H]3CCC[C@H](C(=O)O)C3)c(C(F)(F)F)n2)nnn1C [Example 273, (1S,3S)-3-((6-(5-((((cyclopropylmethyl)(methyl)carbamoyl)oxy)methyl)-1-methyl-1H-1,2,3-triazol-4-yl)-2-(trifluoromethyl)pyridin-3-yl)oxy)cyclohexane-1-carboxylic acid]

Same assay, conditions: human LPA1; read-out: hLPA1 IC50

IC50	SMILES
703 nM	Cn1nnc(-c2ccc(O[C@H]3CCC[C@H](C(=O)O)C3)cn2)c1COC(=O)N1CCC2(CCC2)C1 [Example 175, (1S,3S)-3-((6-(5-(((6-azaspiro[3.4]octane-6-carbonyl)oxy)methyl)-1-methyl-1H-1,2,3-triazol-4-yl)pyridin-3-yl)oxy)cyclohexane-1-carboxylic acid]
61 nM	Cc1nc(-c2nnn(C)c2COC(=O)N(C)C2CC(F)C2)ccc1O[C@H]1CCC[C@H](C(=O)O)C1 (mixture of isomers) [Example 182, (1S,3S)-3-((6-(5-((((3-fluorocyclobutyl)(methyl)carbamoyl)oxy)methyl)-1-methyl-1H-1,2,3-triazol-4-yl)-2-methylpyridin-3-yl)oxy)cyclohexane-1-carboxylic acid]

Same assay, conditions: read-out: hLPA1 IC50

IC50	SMILES
3750 nM	Cc1cc(-c2nnn(C)c2COC(=O)N(C)CCC(C)C)ncc1O[C@H]1CCC[C@H](C(=O)O)C1 [Example 42, (1S,3S)-3-((6-(5-(((isopentyl(methyl)carbamoyl)oxy)methyl)-1-methyl-1H-1,2,3-triazol-4-yl)-4-methylpyridin-3-yl)oxy)cyclohexane-1-carboxylic acid]
180 nM	Cc1nc(-c2nnn(C)c2COC(=O)N2CCC3CCCC32)ccc1O[C@H]1CCC[C@H](C(=O)O)C1 (stereo partly drawn) [Example 149, (1S,3S)-3-((2-methyl-6-(1-methyl-5-(((octahydrocyclopenta[b]pyrrole-1-carbonyl)oxy)methyl)-1H-1,2,3-triazol-4-yl)pyridin-3-yl)oxy)cyclohexane-1-carboxylic acid]
16 nM	Cc1nc(-c2nnn(C)c2COC(=O)N(C)Cc2ccccc2)ccc1O[C@H]1CCC[C@H](C(=O)O)C1 [Example 30, (1S,3S)-3-((6-(5-(((benzyl(methyl)carbamoyl)oxy)methyl)-1-methyl-1H-1,2,3-triazol-4-yl)-2-methylpyridin-3-yl)oxy)cyclohexane-1-carboxylic acid]
2780 nM	CN(C(=O)OCc1c(-c2ccc(O[C@@H]3CCC[C@@H](C(=O)NS(C)(=O)=O)C3)cc2)nnn1C)C1CCCC1 [Example 72, (1-Methyl-4-(4-(((1R,3R)-3-((methylsulfonyl)carbamoyl)cyclohexyl)oxy)phenyl)-1H-1,2,3-triazol-5-yl)methyl cyclopentyl(methyl)carbamate]
41 nM	Cc1nc(-c2nnn(C)c2COC(=O)N(C)[C@H](C)C2CC2)ccc1O[C@H]1CCC[C@H](C(=O)O)C1 [Example 29, (1S,3S)-3-((6-(5-(((((R)-1-cyclopropylethyl)(methyl)carbamoyl)oxy)methyl)-1-methyl-1H-1,2,3-triazol-4-yl)-2-methylpyridin-3-yl)oxy)cyclohexane-1-carboxylic acid]
142 nM	CCCC(C)N(C)C(=O)OCc1c(-c2ccc(O[C@H]3CCC[C@H](C(=O)O)C3)cc2)nnn1C (mixture of isomers) [Example 57, trans-3-(4-(1-methyl-5-(((methyl(pentan-2-yl)carbamoyl)oxy)methyl)-1H-1,2,3-triazol-4-yl)phenoxy)cyclohexane-1-carboxylic acid]
21 nM	C[C@H](c1ccccc1)N(C)C(=O)OCc1c(-c2ccc(O[C@H]3CCC[C@H](C(=O)O)C3)cn2)nnn1C [Example 21, (1S,3S)-3-((6-(1-methyl-5-(((methyl((R)-1-phenylethyl)carbamoyl)oxy)methyl)-1H-1,2,3-triazol-4-yl)pyridin-3-yl)oxy)cyclohexane-1-carboxylic acid]
148 nM	Cc1nc(-c2nnn(C)c2COC(=O)N2CCC(C)(C)C2)ccc1O[C@H]1CCC[C@H](C(=O)O)C1 [Example 140, (1S,3S)-3-((6-(5-(((3,3-dimethylpyrrolidine-1-carbonyl)oxy)methyl)-1-methyl-1H-1,2,3-triazol-4-yl)-2-methylpyridin-3-yl)oxy)cyclohexane-1-carboxylic acid]
174 nM	CCC1(N(C)C(=O)OCc2c(-c3ccc(O[C@H]4CCC[C@H](C(=O)O)C4)c(C)n3)nnn2C)CCC1 [Example 133, (1S,3S)-3-((6-(5-((((1-ethylcyclobutyl)(methyl)carbamoyl)oxy)methyl)-1-methyl-1H-1,2,3-triazol-4-yl)-2-methylpyridin-3-yl)oxy)cyclohexane-1-carboxylic acid]
14 nM	CN(CC1CCC1)C(=O)OCc1c(-c2ccc(O[C@H]3CCC[C@](F)(C(=O)O)C3)cn2)nnn1C (racemic) [Example 90]
19 nM	CCCN(C)C(=O)OCc1c(-c2ccc(O[C@H]3CCC[C@H](C(=O)O)C3)c(C)n2)nnn1C [Example 104, (1S,3S)-3-((2-methyl-6-(1-methyl-5-(((methyl(propyl)carbamoyl)oxy)methyl)-1H-1,2,3-triazol-4-yl)pyridin-3-yl)oxy)cyclohexane-1-carboxylic acid]
32 nM	Cc1cc(-c2nnn(C)c2COC(=O)N(C)Cc2ccccc2)ccc1O[C@H]1CCC[C@H](C(=O)O)C1 [Example 38, (1S,3S)-3-(4-(5-(((benzyl(methyl)carbamoyl)oxy)methyl)-1-methyl-1H-1,2,3-triazol-4-yl)-2-methylphenoxy)cyclohexane-1-carboxylic acid]
14 nM	Cc1cc(-c2nnn(C)c2COC(=O)N(C)CC2CCC2)ccc1O[C@H]1CCC[C@H](C(=O)O)C1 [Example 37, (1S,3S)-3-(4-(5-((((cyclobutylmethyl)(methyl)carbamoyl)oxy)methyl)-1-methyl-1H-1,2,3-triazol-4-yl)-2-methylphenoxy)cyclohexane-1-carboxylic acid]
518 nM	Cc1nc(-c2nnn(C)c2COC(=O)N2CCC(F)(F)C2)ccc1O[C@H]1CCC[C@H](C(=O)O)C1 [Example 143, (1S,3S)-3-((6-(5-(((3,3-difluoro-pyrrolidine-1-carbonyl)oxy)methyl)-1-methyl-1H-1,2,3-triazol-4-yl)-2-methylpyridin-3-yl)oxy)cyclohexane-1-carboxylic acid]
17 nM	[2H]C([2H])([2H])n1nnc(-c2ccc(O[C@H]3CCC[C@H](C(=O)O)C3)cn2)c1COC(=O)N(C)CCCC [Example 112, (1S,3S)-3-((6-(5-(((butyl(methyl)carbamoyl)oxy)methyl)-1-(methyl-d3)-1H-1,2,3-triazol-4-yl)pyridin-3-yl)oxy)cyclohexane-1-carboxylic acid]
